{"source": "paper PMC10384610", "about": "“Combining nonsense mutation suppression therapy with nonsense-mediated decay inhibition in neurofibromatosis type 1” (Molecular Therapy. Nucleic Acids, 2023)", "key": {"[1]": {"conditions": "murine models of DMD and CF, subcutaneous once daily 34 mg/kg, suppresses PTCs; cited from earlier work"}, "[2]": {"conditions": "human patients with DMD or CF, once daily intravenous infusion 7.5–10 mg/kg; cited from earlier work"}, "NF1^NS/− Schwann cells": {"test_system": "NF1^NS/− Schwann cells", "experiment": "Western blot of neurofibromin and p-ERK in NF1^NS/− Schwann cells (LOH) treated with nonsense suppression drugs", "assay_type": "cell-based, minipig", "conditions": "concentrations of Table S2, 24, 48 or 72 h", "procedure": "(§1) Schwann cells were isolated as previously described.[9]^,[18] Sciatic nerve or cutaneous neurofibroma were biopsied from WT or NF1^R1947/+ minipigs and transported in Dulbecco’s Modified Eagle’s Medium (DMEM; Thermo) containing 10% fetal bovine serum (FBS; Thermo) and 1% Antibiotic/Antimycotic (AA; Thermo). In a laminar flow hood, specimens were rinsed in 70% ethanol and phosphate-buffered saline (PBS; VWR 16750-078) by briefly dipping into each solution 10 times. Tissues were minced and incubated at 37°C, 5% CO2 in dissociation media containing DMEM with 10% FBS, 1% AA, 1x collagenase A (Thermo), and 1x dispase II (Roche) overnight in a Petri dish, then transferred to a conical and centrifuged at 270 × g for 5 min. Cells were plated onto a poly-L-lysine (0.05 mg/mL) and laminin-coated (10 μg/mL) six-well plate and cultured in complete media containing DMEM with high-glucose (GIBCO) supplemented with 10% FBS (GIBCO), forskolin (2 μM) (Calbiochem), 1% N2 supplement (Thermo), recombinant human neuregulin-b1 (NRG1) (10 ng/mL) (R&D Systems), and 1% AA. Media was replaced every 2 days. Schwann cells were separated from contaminating fibroblasts via magnetic cell selection, as described.[9]^,[18] Purified Schwann cells were expanded and stored in liquid nitrogen at low passage and vials were thawed immediately prior to use in experiments to maintain low-passage cells.\n(§2) For extraction of protein from cells, snap frozen pellets were briefly thawed on ice and resuspended in RIPA buffer (Sigma) containing protease (Sigma) and phosphatase inhibitors (Sigma), then vortexed at 2,000 rpm at 4°C for 20 min, then centrifuged at 4°C for 15 min at 20,000 × g. For extraction of protein from tissues, snap frozen tissues were thawed briefly on ice, then 50 to 80 mg of tissue was transferred to a 2-mL microtube containing ceramic homogenizers (Agilent Technologies) and homogenized using a Bead Blaster (Benchmark Scientific) at 4,260 rpm, 7 m/s linear speed, 3 cycles of 30 s at 4°C. Homogenates were centrifuged at 13,000 rpm for 3 min at 4°C, then supernatants were transferred to new tubes and sonicated at an amplitude of 20A for 10 s at 4°C, vortexed at 2,000 rpm at 4°C for 20 min, then centrifuged at 20,000 × g at 4°C for 15 min.\n(§3) Protein lysates from cells or tissues were quantified using a BCA assay (Thermo). Twenty to 30 μg of protein was denatured at 95°C for 5 min and separated by electrophoresis using SDS on 1.5-mm NuPAGE 4–12% Bis-Tris protein gels (Thermo). Protein was transferred to Immun-Blot PVDF Membrane (Bio-Rad) overnight (16–20 h) at 18 V, 4°C. Membranes were cut according to target molecular weights and blocked at room temperature (RT) for 1 h using 5% blocking grade buffer (Bio-Rad) in TBST (Tris-buffered saline, 0.1% Tween 20) (Sigma). Membranes were incubated with primary antibody overnight at 4°C and washed with TBST three times for 5 min at RT, then incubated with horseradish peroxidase-conjugated secondary antibody for 1 h at RT and washed again as described above. All washes and incubations were performed on a rocking platform. Blots were developed with the WesternBright Quantum Kit (Advansta). Bands were imaged using the Li-Cor Odyssey Fc Imaging System, quantified by densitometry, and normalized to HSP90.\nAtaluren (MedChem Express) was reconstituted in sterile dimethyl sulfoxide (DMSO) to a stock concentration of 10 mM and stored at −80°C. Cells were seeded in complete media at a density of 0.3 × 10^6 cells/plate in 10-cm plates. Media was changed 24 h later to complete media without AA and containing vehicle or drugs at indicated concentrations. Cells were harvested 24, 48, and 72 h after drug treatment and divided for protein and/or RNA extraction."}, "[3]": {"experiment": "Tolerability and renal parameters in NF1 minipigs", "assay_type": "in vivo, minipig", "conditions": "sc 8.25 mg/kg once daily for 14 days"}, "[4]": {"test_system": "neurofibromin and p-ERK protein levels", "experiment": "Pharmacodynamics: western blot of neurofibromin and p-ERK in NF1 minipig tissues", "assay_type": "in vivo", "conditions": "treated (n = 5) vs untreated controls (n = 4), sc 8.25 mg/kg daily 14 days", "description": "(§4) Tissue samples (skin, sciatic nerve, optic nerve, and cortex) were collected from each animal at the same approximate locations and divided for analysis."}, "in vivo": {"experiment": "in vivo", "conditions": "sc", "procedure": "Human equivalent doses (HED) were determined by allometric scaling using the standard conversion coefficient (Km), where Km = 1.1 for minipig and HED determination. Consequently, a 7.5-mg/kg human equivalent dose was 8.25 mg/kg. The required volume of drug for each animal was then based on individual body weight and determined on the day of administration.\nas §4\nPlasma isolations were performed as described in a previous study.[10] Briefly, serial whole blood samples (1.5 mL) were collected from the jugular vein into lithium heparin vacutainer tubes. Samples were immediately transferred to a 1.7-mL microfuge tube and centrifuged at 2,000 × g for 10 min at 4°C. Supernatant (plasma) was transferred to a cryovial and stored at −80°C until analysis. […] Assay analytical measurement ranged from 0.2 to 12 mg/L, and samples with results higher than 12 mg/L were diluted appropriately and re-analyzed. Within-run precision is 0.3% CV, between-day precision is 0.4% CV, and accuracy is 99.8% (correlation coefficient). For each tissue type (skin, sciatic nerve, optic nerve, and cerebral cortex), samples were analyzed commercially using liquid chromatography with tandem mass spectrometry (LC-MS/MS; BioAgilytix, San Diego, CA). […] Standard curves and quality controls were prepared with untreated tissues. Tissues were prepared with a homogenization solution containing collagenase. […] The LC-MS/MS system consisted of a Waters Acquity UPLC (Milford, MA) coupled with a Waters Xevo TQ-S Micro Triple Quad mass spectrometer (Milford, MA). Mass transition data were acquired in electrospray positive ion (ESI^+) mode and captured using MassLynx 4.1 (Waters, Milford, MA).\nPharmacokinetic parameters and measures of systemic exposure included area under the concentration-time curve (AUC; linear up, log down), maximum concentration (Cmax), time to Cmax (Tmax), and half-life (t1/2)."}, "NF1^NS/+ Schwann cells": {"test_system": "NF1^NS/+ Schwann cells", "experiment": "Western blot of neurofibromin and p-ERK in NF1^NS/+ Schwann cells treated with nonsense suppression drugs", "assay_type": "cell-based, minipig", "conditions": "for neurofibromin increase in NF1^NS/+ Schwann cell cultures: multiple concentrations (Table S2), 24, 48 or 72 h, 3 biological replicates", "procedure": "as §1, §2, §3\nAtaluren (MedChem Express) was reconstituted in sterile dimethyl sulfoxide (DMSO) to a stock concentration of 10 mM and stored at −80°C. […]"}, "[5]": {"conditions": "NF1 minipig (NF1^R1947*/+), in vivo, 30 min", "procedure": "Tissues were prepared with a homogenization solution containing collagenase."}, "[6]": {"parameters": "method as in PMID 33978635", "conditions": "NF1 minipigs compared with WT minipigs; cited from earlier work"}, "[7]": {"test_system": "NF1^R1947∗ mutation dual luciferase reporter in iPNF95.6 cells", "experiment": "Dual luciferase reporter (DLR) readthrough assay in human Schwann cells", "assay_type": "cell-based", "conditions": "human Schwann cells iPNF95.6, 48 h, normalized to Renilla", "description": "(§5) The NF1^R1497X DLR plasmid was kindly provided by David Bedwell at University of Alabama. The Renilla-NF1-R1947X-Firefly insert contains 30 nucleotides surrounding the premature termination codon in NF1-R1947X inserted between the Renilla and Firefly genes. The 30-base pair readthrough cassette contains NF1^R1497X (G TCGACGGATGCCAAATGACAAAGAGTTGGATCC). Plasmids were amplified in DH5a E. coli using ampicillin selection and purified using a Qiagen miniprep kit, according to the manufacturer’s protocol. To produce stable cell cultures, we used Gateway cloning to transfer the DLR insert to a hygromycin-resistant PiggyBac Sleeping Beauty (PBSB) transposon vector. Briefly, a GBlock containing the DLR insert sequence and attB sites was cloned into the pDONR221 vector using BP clonase to produce pENTR-Renilla-NF1-R1947X-Firefly. This was cloned into the PBSB vector using LR clonase to produce pPBSB-CG-Renilla-NF1-R1947X-Firefly-PGK-Hygro, which was confirmed by DNA sequencing. Schwann cells were grown to 80% confluency and transfected with the PBSB transposon and PB7 (PiggyBac transposase) (5 μg each/ 1million cells) using the Neon electroporation system (Invitrogen #MPK10096). […] The DLR assay system (Promega) was used to detect readthrough, according to the manufacturer’s instructions. Luminescence was measured using the Cytation 5 plate reader. […]"}, "[8]": {"test_system": "NF1^R1947∗ mutation dual luciferase reporter in NF1^NS/− Schwann cells", "experiment": "Dual luciferase reporter (DLR) readthrough assay in minipig Schwann cells", "assay_type": "cell-based", "conditions": "minipig NF1^NS/− cNF Schwann cells, 48 h, normalized to Renilla", "description": "as §5"}, "[9]": {"conditions": "NF1^NS/+ Schwann cells, 100 μg/mL, 48 h"}}, "note": "Like-named read-outs stand apart in the source and are kept apart here.", "data": [{"smiles": "CNC(C)C1CCC(N)C(OC2C(N)CC(N)C(OC3OCC(C)(O)C(NC)C3O)C2O)O1", "note": "(centres unmarked) [gentamicin]", "values": [{"measurement": "peak plasma concentration (Cmax)", "setting": "[1]", "result": "40000 to 60000", "unit": "ng/mL"}, {"measurement": "Cmax", "setting": "[2]", "result": "20000 to 40000", "unit": "ng/mL"}, {"measurement": "nonsense suppression through expression of neurofibromin", "setting": "NF1^NS/− Schwann cells", "result": "no indication of nonsense suppression through expression of neurofibromin"}, {"measurement": "reduction in p-ERK", "setting": "NF1^NS/− Schwann cells", "result": "not a corresponding reduction in p-ERK"}, {"measurement": "tolerability, renal parameters including serum creatinine and blood urea nitrogen", "setting": "[3]", "result": "well tolerated with no significant changes in renal parameters"}, {"measurement": "neurofibromin protein expression in other tissues (cortex, sciatic nerve)", "setting": "[4]", "result": "no significant change"}, {"measurement": "p-ERK downregulation in tissues (optic nerve, cortex, sciatic nerve, skin)", "setting": "[4]", "result": "not significant in any tissues"}, {"measurement": "neurofibromin protein expression in optic nerve tissue", "setting": "[4]; p = 0.01", "result": "higher"}, {"measurement": "Cmax", "setting": "in vivo; NF1 minipig, 8.25 mg/kg, Cmax", "result": 38000, "unit": "ng/mL"}, {"measurement": "half-life", "setting": "in vivo; NF1 minipig, 8.25 mg/kg, t1/2", "result": 1.82, "unit": "h"}, {"measurement": "Cmax", "setting": "in vivo; Ossabaw, minipig, 8.25 mg/kg, mean Cmax", "result": 38000, "unit": "ng/mL"}, {"measurement": "Cmax", "setting": "in vivo; Ossabaw, minipig, 8.25 mg/kg, target Cmax reached", "result": 40000, "unit": "ng/mL"}, {"measurement": "changes in PK parameters after 14 days", "setting": "in vivo; minipig", "result": "no significant changes in PK parameters"}, {"measurement": "neurofibromin, dose trend", "setting": "NF1^NS/+ Schwann cells; NF1^NS/+ Schwann cells, 250 or 500 μg/mL, 48 h, not replicated in other cultures", "result": "linear increase in neurofibromin at 48 h in one replicate"}, {"measurement": "neurofibromin increase in NF1^NS/+ Schwann cell cultures", "setting": "NF1^NS/+ Schwann cells", "result": "not consistent between replicates or did not exhibit a dose- or time-dependent increase"}, {"measurement": "difference of mean tissue concentrations from cortex (lowest) to sciatic nerve (highest)", "setting": "[5]", "result": "up to 8 fold"}]}, {"smiles": "O=C(O)c1cccc(-c2noc(-c3ccccc3F)n2)c1", "note": "[ataluren]", "values": [{"measurement": "nonsense suppression through expression of neurofibromin", "setting": "NF1^NS/− Schwann cells", "result": "no indication of nonsense suppression through expression of neurofibromin"}, {"measurement": "reduction in p-ERK", "setting": "NF1^NS/− Schwann cells", "result": "not a corresponding reduction in p-ERK"}]}, {"smiles": "Cn1cnc2c(F)c(Nc3ccc(Br)cc3Cl)c(C(=O)NOCCO)cc21", "note": "[selumetinib]", "values": [{"measurement": "concentration in the brain", "setting": "[6]", "result": "reaches higher concentrations in the brain of NF1 minipigs compared with WT minipigs"}]}, {"smiles": "CN[C@@H]1[C@@H](O)[C@@H](O[C@@H]2[C@@H](O)[C@H](O[C@H]3O[C@H]([C@@H](C)O)[C@@H](O)[C@H](O)[C@H]3N)[C@@H](N)C[C@H]2N)OC[C@]1(C)O", "note": "[G418]", "values": [{"measurement": "firefly luciferase activity compared with vehicle-treated cells", "setting": "[7]", "result": "significant and dose-dependent increase"}, {"measurement": "nonsense suppression through expression of neurofibromin", "setting": "NF1^NS/− Schwann cells", "result": "no indication of nonsense suppression through expression of neurofibromin"}, {"measurement": "reduction in p-ERK", "setting": "NF1^NS/− Schwann cells", "result": "not a corresponding reduction in p-ERK"}, {"measurement": "firefly luciferase activity compared with vehicle-treated cells", "setting": "[8]", "result": "significant and dose-dependent increase"}, {"measurement": "neurofibromin", "setting": "NF1^NS/+ Schwann cells; [9]", "result": "increased in all three replicates"}, {"measurement": "p-ERK", "setting": "NF1^NS/+ Schwann cells; [9]", "result": "paradoxically increased"}, {"measurement": "neurofibromin increase in NF1^NS/+ Schwann cell cultures", "setting": "NF1^NS/+ Schwann cells", "result": "not consistent between replicates or did not exhibit a dose- or time-dependent increase"}]}]}
